Source: patent US11760889B2, “Unsaturated fatty alcohol derivatives from natural oil metathesis” (priority 2012, dated 2023)
Where two headings read alike, the source gives them in different places.

Key:
[1] = Anionic emulsifier: emulsion stability testing of EW concentrate (modified ASTM E1116-98)
Method: Turbidity changes are noted and recorded.
A Mohr pipette is used to feed EW concentrate to each cylinder. Cylinders are stoppered and inverted ten times, then allowed to stand for 0.5, 1, and 24 h while recording stability at each time as type and % separation.
Spontaneity is recorded according to the following criteria: (1) poor: very thin emulsion cloud with major separation of oil droplets; (2) fair: thin emulsion cloud with minor separation of oil droplets; (3) good: thin emulsion cloud reaches the bottom of the cylinder without separation of any type; (4) excellent: thick emulsion cloud reaches the bottom of the cylinder without separation of any type.

[2] = Surfactant phase behavior study (cross-polarized microscopy); format: physicochemical; details: room temperature (20-22° C.)
Method: Phase behavior is observed using an Olympus BH-2 cross-polarized microscope at 100-400× and room temperature (20° C. to 22° C.). The inventive monounsaturated sulfates and ethoxylate sulfates are compared with their saturated analogs, and in some cases, commercial surfactants.
Samples are prepared by diluting the most concentrated product gradually with deionized water. When the surfactant concentration approaches a phase transition, the concentration is varied at 2-4% intervals to estimate the phase boundary. The actives level reported in Table 15 for each phase boundary is within ±5% of the true boundary.
Samples are loaded between a microscope slide and cover glass and are allowed to equilibrate before observation. Microscopic texture is analyzed and used to determine the phase. For some samples, an AR 2000 rheometer (TA Instruments) is used to measure viscosity at 25° C. to further verify phase behavior.

[3] = Water-soluble herbicide formulation testing (standard dilution test, emulsion stability); format: physicochemical; parameters: key to Emulsion stability, mL separation, 24 h: Tr = trace; details: 342 ppm water;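 further: diluted in a 50 mL Nessler cylinder held at 30 °C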
Method: Surfactant candidates for water soluble herbicide applications are examined as a replacement for the anionic, nonionic, or anionic/nonionic blend portion and compared to a known industry adjuvant standard for use in paraquat, a water soluble herbicide concentrate formulation. A standard dilution test is conducted whereby the concentrates are diluted in water to determine if solubility is complete.
The cylinder is stoppered and inverted ten times. Solubility is recorded as complete or incomplete. Cylinders are allowed to stand and the amount (in mL) and type of separation are recorded after 30 min., 1 h, 2 h, and 24 h. Results of the solubility testing appear in Table 3 below.
An eight to ten mole alkyl phenol ethoxylate surfactant (0.7 g) is added and vigorously mixed for 30 s. Test sample (0.7 g) is added and mixing resumes for 30 s.
Test sample (0.7 g) is added and vigorously mixed for 30 s. Sodium linear alkylbenzene sulfonate (“NaLAS,” 0.7 g) is added and mixing resumes for 30 s.

[4] = Emulsion polymerization surfactant screen
Method: A reaction kettle is charged with sodium bicarbonate (0.50 g), water (225 g), and seed latex (30 g) and the mixture is heated to and held at 83° C. under nitrogen with stirring at 200 rpm. […] Methyl methacrylate (255 g), butyl acrylate (235 g), and methacrylic acid (10 g) are combined in an Erlenmeyer flask and mixed. […] Separately, two other mixtures are prepared: an initiator shot mixture of ammonium persulfate (1.0 g) in water (20 g), and a cofeed mixture of ammonium persulfate (2.70 g), sodium bicarbonate (1.50 g), and water (75 g); the total amount of initiator used is 0.74% based on monomers. The initiator shot is charged to the 83° C. reaction kettle dropwise over 1 min, then held for 10 min. The monomer emulsion is then fed to the kettle at 2.1 mL/min. for 10 min. The feed rate of the monomer emulsion is increased to 4.2 mL/min., and the cofeed mixture is started at 0.37 mL/min. Total addition time is 3 h, during which particle size and temperature are monitored. After addition of the monomer emulsion is complete, a water wash (50 g) is started, and heating at 83° C. continues for 1 h. The product is cooled. The pH is adjusted to 7.5 with dilute ammonium hydroxide solution. A preservative is added, and the mixture is filtered.

[5] = Adjuvant (anionic/nonionic) test sample

pre-emulsion stability [4]	Compound	% Separation, 1 h ([1]; 34 ppm water)	% Separation, 24 h ([1]; 34 ppm water)	% Separation, 1 h ([1]; 1000 ppm water)	% Separation, 24 h ([1]; 1000 ppm water)	Estimated Phase Region: Hexagonal [2]	Estimated Phase Region: Lamellar [2]	Estimated Phase Region: Solid/gum/paste [2]	Estimated Phase Region: Unknown [2]	Emulsion stability, mL separation, 1 h [3, 5]	Emulsion stability, mL separation, 24 h [3, 5]	Emulsion stability, mL separation, 1 h ([3]; Anionic test sample)	Emulsion stability, mL separation, 24 h ([3]; Anionic test sample)	Emulsion stability, mL separation, 1 h ([3]; Nonionic test sample)	Emulsion stability, mL separation, 24 h ([3]; Nonionic test sample)	Estimated Phase Region: Isotropic Clear [2]	pre-emulsion stability ([4]; surfactant level in EP 0.50%)
	C=CCCCCCCCCOS(=O)(=O)O.N [A10-2]	3.8%	4%	3.1%	3.8%	42-64 % actives	64-80 % actives	80-100 % actives	0-42 % actives	0 mL	0 mL	0 mL	0 mL	0 mL	Tr		
	C=CCCCCCCCCOS(=O)(=O)[O-].[Na+] [A10-3]	4%	4%	3%	3.1%	43-70 % actives	70-81 % actives	81-100 % actives		0 mL	0 mL	0 mL	0 mL	0 mL	Tr	0-43 % actives	
	C12 Alcohol Sodium Sulfate [A12-3]	4.5%	5.7%	3%	4%	38-66 % actives	66-83 % actives	83-100 % actives		0 mL	Tr	0 mL	0 mL	0 mL	Tr	0-38 % actives	stable
stable	calcium alkylbenzenesulfonate [Control 1]																
